# Source: article PMC1977926, “Human pancreatic cancer cell lines do not express receptors for somatostatin” (British Journal of Cancer, 1992)
# Bridge positions count the residues as written; N and C are the ends. Square brackets hold non-standard residues; d marks the D form. Peptide text beside a SMILES is read from it. Tyr(3-I) = N[C@@H](Cc1ccc(O)c(I)c1)C(=O)O
# Assays:
# [1] = test system: somatostatin receptors (Panc-1 membranes); assay: Displacement binding, 125I-SS, Panc-1 membranes; parameters: species or system human; settings: 125I-SS 0.5 nM, unlabelled RC-160 10-6 to 10-11 M, 1 h at 30 C
# From the text: (§1) Br. J. Cancer (1992), 66, 483 487 ? […] Somatostatin (SS) is a tetradecapeptide widely distributed throughout the body, being found in high concentrations in the brain, stomach, intestine and pancreas (Reichlin, 1983). Somatostatin exerts inhibitory actions on the cellular func- tions within a variety of tissues including secretion and growth (Konturek et al., 1988; Meyers & Coy, 1980; Schally, 1988). […] It has therefore been proposed that somatostatin may be capable of inhibiting pancreatic tumour growth indirectly via the suppression of secretion of pancreatic trophic hor- mones and/or by direct effects on the tumour itself (Schally et al., 1988; Liebow et al., 1989). […] For somatostatin to impair directly the growth of pancreatic cancer the cells should therefore express receptors for the peptide. The aim of these study was to determine the somatostatin receptor status of two human (MiaPaCa-2 & Panc-1) and a rat (AR42J) pancreatic cancer cell lines. […] DNA synthesis was assessed for the final 6 h by adding 0.5 liCi 3H-thymi- dine/well. […] Scin- tillation fluid was added to individual filter discs and the cell associated radioactivity counted in a beta counter (Packard 1900CA Tricarb). […] The protein content of the suspension was determined using a bicinchoninic acid kit (Pierce, Rockford, USA).
# [2] = test system: somatostatin receptors (MiaPaCa-2 membranes); assay: Displacement binding, 125I-SS, MiaPaCa-2 membranes; parameters: species or system human; settings: 125I-SS 0.5 nM, unlabelled RC-160 10-6 to 10-11 M, 1 h at 30 C
# From the text: as §1
# [3] = biological target: T1, somatostatin receptors (AR42J membranes) (Rattus norvegicus, UniProt P30680); assay: Saturation binding, 125I-SS, AR42J membranes; settings: 125I-SS 0.05-1 nM, 2 h at 30 C, single class of high affinity binding sites (abstract)
# T1 construct: endogenous in cells; host or cells: AR42J rat pancreatic acinar tumour cell line (membrane preparation)
# T1 sequence (P30680 whole entry): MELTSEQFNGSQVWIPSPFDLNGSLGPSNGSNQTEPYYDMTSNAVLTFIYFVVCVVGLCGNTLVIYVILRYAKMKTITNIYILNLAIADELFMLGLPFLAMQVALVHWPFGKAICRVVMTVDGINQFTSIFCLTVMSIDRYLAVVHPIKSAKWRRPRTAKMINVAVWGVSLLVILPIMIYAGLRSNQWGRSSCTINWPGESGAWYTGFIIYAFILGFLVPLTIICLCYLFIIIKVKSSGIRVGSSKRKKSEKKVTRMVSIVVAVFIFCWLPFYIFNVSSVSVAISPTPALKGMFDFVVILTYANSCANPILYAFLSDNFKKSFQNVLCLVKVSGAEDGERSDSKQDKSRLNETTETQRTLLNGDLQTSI
# From the text: as §1
# [4] = biological target: T1, somatostatin receptors (AR42J membranes); assay: Displacement binding, 125I-SS, AR42J membranes; settings: 125I-SS 0.5 nM, 1 h at 30 C
# From the text: as §1
# [5] = test system: tyrosine phosphatase activity; settings: in vitro, MiaPaCa-2; ref Liebow et al., 1989; cited from earlier work
# From the text: (§2) Br. J. Cancer (1992), 66, 483 487 ? […] Summary The in vivo administration of somatostatin (SS) or its analogues is capable of suppressing the growth of pancreatic cancer in experimental animals. We examined the effects of SS-14 and its analogue RC-160 on the in vitro growth of ...
# Panc-1 = settings: unstimulated cells, serum-free medium, one concentration; ref Liehr et al., 1990; cited from earlier work
# From the text: as §2
# [6] = test system: somatostatin receptors on MiaPaCa-2; settings: no Kd quoted, no total or non-specific binding curves; ref Hierowski et al. (1985); cited from earlier work
# From the text: as §2
# [7] = test system: endocrine secretion of cholecystokinin, gastrin and secretin; settings: ref Schally et al., 1978; cited from earlier work
# From the text: as §2
# [8] = test system: somatostatin receptors in human pancreatic adenocarcinomas; settings: 12 fresh adenocarcinomas; ref Reubi et al. (1988); cited from earlier work
# From the text: as §2
# [9] = test system: somatostatin binding sites in human pancreatic cancer xenograft; settings: ref Singh and colleagues (1991); cited from earlier work
# From the text: as §2
# EGF receptor = settings: ref Hierowski et al., 1985; cited from earlier work
# From the text: as §2
# MiaPaCa-2 = settings: cited from earlier work
# From the text: as §2
# [10] = test system: rat experimental pancreatic cancer; settings: ref Redding et al. (1984); cited from earlier work
# From the text: as §2
# [11] = test system: pancreatic exocrine secretion of protein and bicarbonate; settings: ref Boden et al., 1975; cited from earlier work
# From the text: as §2
# [12] = test system: hamster experimental pancreatic cancer; settings: ref Redding et al. (1984); cited from earlier work
# From the text: as §2
# [13] = test system: MiaPaCa-2 human ductal pancreatic carcinoma cell line; assay: Proliferation of MiaPaCa-2 (3H-thymidine incorporation); type: cell-based; settings: three experiments, five determinations; for Stimulation of growth of MiaPaCa-2: serum free medium, 3H-thymidine incorporation, P<0.01 compared to untreated cells
# From the text: (§3) Br. J. Cancer (1992), 66, 483 487 ? […] Somatostatin (SS) is a tetradecapeptide widely distributed throughout the body, being found in high concentrations in the brain, stomach, intestine and pancreas (Reichlin, 1983). Somatostatin exerts inhibitory actions on the cellular func- tions within a variety of tissues including secretion and growth (Konturek et al., 1988; Meyers & Coy, 1980; Schally, 1988). […] It has therefore been proposed that somatostatin may be capable of inhibiting pancreatic tumour growth indirectly via the suppression of secretion of pancreatic trophic hor- mones and/or by direct effects on the tumour itself (Schally et al., 1988; Liebow et al., 1989). […] For somatostatin to impair directly the growth of pancreatic cancer the cells should therefore express receptors for the peptide. The aim of these study was to determine the somatostatin receptor status of two human (MiaPaCa-2 & Panc-1) and a rat (AR42J) pancreatic cancer cell lines. We have also studied the effects of somatostatin-14 and RC-160 on the proliferation of these three cell lines. Materials and methods Cell growth MiaPaCa-2 and Panc-1 are both human ductal pancreatic carcinoma cell lines and were obtained from the European Cell Culture Collection. AR42J is a rat pancreatic acinar tumour cell line and was kindly provided by Dr S. Watson (Cancer Research Campaign Laboratories, Nottingham Uni- versity). MiaPaCa-2 and Panc-l were routinely grown in Dulbecco's Modified Eagle's Medium (DMEM) containing 10% foetal calf serum (ICN Flow, Irvine). AR42J cells were grown in RPMI 1640 containing 10% FCS (ICN Flow, Irvine). The cells were trypsinised and plated out in 96 well plates at 5 x I04 cells ml-' in serum-free (SF) medium for 24 h. After this period of serum starvation the medium was supple- mented with EGF (Sigma, Dorset) or IGF-I (Peninsula, St Helens) with or without SS-14 (Sigma, Dorset) or RC-160 (Peninsula, St Helens). EGF, IGF-1, SS-14 and RC-160 were added at concentrations described in the Results section. The cells were then incubated for 48 h at 37?C. DNA synthesis was assessed for the final 6 h by adding 0.5 liCi 3H-thymi- dine/well. The cells were then collected onto filter mats using a semi-automatic cell harvester (Inotech, Switzerland). Scin- tillation fluid was added to individual filter discs and the cell associated radioactivity counted in a beta counter (Packard 1900CA Tricarb). Binding studies Binding of ['25I-tyr"]Somatostatin (Amersham International) was performed on membranes prepared from the three cell lines. Cells were washed twice with phosphate buffered saline (pH 7.4), then removed from 150 cm2 flasks using a cell scraper. […] The protein content of the suspension was determined using a bicinchoninic acid kit (Pierce, Rockford, USA).
# [14] = test system: Panc-1 human ductal pancreatic carcinoma cell line; assay: Proliferation of Panc-1 (3H-thymidine incorporation); type: cell-based; settings: 48 h, three experiments, five determinations; for Stimulation of growth of Panc-1: serum free medium, 3H-thymidine incorporation, P<0.01 compared to untreated cells
# From the text: as §3
compound,measurement,setting,value
C[C@H](N)C(=O)NCC(=O)N[C@H]1CSSC[C@@H](C(=O)O)NC(=O)[C@H](CO)NC(=O)[C@H]([C@@H](C)O)NC(=O)[C@H](Cc2ccc(O)c(I)c2)NC(=O)[C@H]([C@@H](C)O)NC(=O)[C@H](CCCCN)NC(=O)[C@H](Cc2c[nH]c3ccccc23)NC(=O)[C@H](Cc2ccccc2)NC(=O)[C@H](Cc2ccccc2)NC(=O)[C@H](CC(N)=O)NC(=O)[C@H](CCCCN)NC1=O [125I-Tyr11 somatostatin] (H-AGCKNFFWKT[Tyr(3-I)]TSC-OH; disulfide 3-14 (inferred); N-terminus and C-terminus assumed),"Displaceable binding, Panc-1",[1],not displaceable binding was observed
same,"Displaceable binding, MiaPaCa-2",[2],not displaceable binding was observed
same,Bmax,[3],2.1 +/- 0.26 pmoles mg-1 protein
CC(C)[C@@H]1NC(=O)[C@H](CCCCN)NC(=O)[C@@H](Cc2c[nH]c3ccccc23)NC(=O)[C@H](Cc2ccc(O)cc2)NC(=O)[C@@H](NC(=O)[C@H](N)Cc2ccccc2)CSSC[C@@H](C(=O)N[C@@H](Cc2c[nH]c3ccccc23)C(N)=O)NC1=O [RC-160] (H-[dF]CY[dW]KVCW-NH2; disulfide 2-7),Displacement of radiolabelled somatostatin from AR42J membranes,"[4]; unlabelled RC-160 10-6 to 10-11 M, 50 mM Tris, 0.2% BSA, filtration",95%
same,IC50,"[4]; competition, AR42J membranes, non-linear regression",631 pM
"SS-14: Somatostatin (SS) is a tetradecapeptide; SS-14 from Sigma, Dorset",Promotion of tyrosine phosphatase activity,[5],promotion of tyrosine phosphatase activity
same,"Growth inhibitory effect, Panc-1",Panc-1,no growth inhibitory effect
same,"Bmax, MiaPaCa-2",[6],3.6 fmole mg-' protein
same,"Inhibition of endocrine secretion of cholecystokinin, gastrin and secretin",[7],"inhibits the pancreatic exocrine secretion of protein and bicarbonate (Boden et al., 1975) and the endocrine secretion of cholecystokinin, gastrin and secretin"
same,Specific somatostatin receptors in fresh human pancreatic adenocarcinomas,[8],none of which contained specific somatostatin receptors
same,Specific binding sites in human pancreatic cancer xenograft,[9],one of these xenografts expressed specific binding sites
same,Dephosphorylation of the EGF receptor,EGF receptor,causes the dephosphorylation of the EGF receptor
same,Inhibition of EGF-stimulated growth of MiaPaCa-2,"MiaPaCa-2; in vitro, ref Liebow et al. (1986; 1989)",all inhibit the EGF- stimulated growth of MiaPaCa-2
same,"Growth inhibitory effect, MiaPaCa-2","MiaPaCa-2; unstimulated cells, serum-free medium, one concentration, ref Liehr et al., 1990",no growth inhibitory effect
same,Inhibition of rat experimental pancreatic cancer growth,[10],inhibition of both rat and hamster experimental pancreatic cancer growth
same,Inhibition of pancreatic exocrine secretion,[11],inhibits the pancreatic exocrine secretion of protein and bicarbonate
same,Inhibition of hamster experimental pancreatic cancer growth,[12],inhibition of both rat and hamster experimental pancreatic cancer growth
same,Effect on DNA synthesis in EGF stimulated MiaPaCa-2 cells,"[13]; EGF 10^-8 M, serum free DMEM, 48 h at 37 C, 3H-thymidine for final 6 h, P>0.05 compared to stimulated cells",neither SS-14 nor RC-160 had any effect on DNA synthesis
same,Effect on DNA synthesis in IGF-1 stimulated MiaPaCa-2 cells,"[13]; IGF-1 10^-8 M, serum free, 48 h, 3H-thymidine for final 6 h, P>0.05 compared to stimulated cells",neither SS-14 nor RC-160 had any effect on DNA synthesis
same,Effect on DNA synthesis in EGF stimulated Panc-1 cells,"[14]; EGF 10^-8 M, serum free, 3H-thymidine for final 6 h, P>0.05 compared to stimulated cells",neither SS-14 nor RC-160 had any effect on DNA synthesis
same,Effect on DNA synthesis in IGF-1 stimulated Panc-1 cells,"[14]; IGF-1 10^-8 M, serum free, 3H-thymidine for final 6 h, P>0.05 compared to stimulated cells",neither SS-14 nor RC-160 had any effect on DNA synthesis
"epidermal growth factor [EGF, epidermal growth factor (Sigma, Dorset)]",Stimulation of growth of MiaPaCa-2,[13]; 48 h,"stimulated the growth of both cell lines (P<0.01 compared to untreated cells), having a more pronounced effect on MiaPaCa-2"
same,Stimulation of growth of Panc-1,[14],stimulated the growth of both cell lines (P<0.01 compared to untreated cells)
insulin-like growth factor 1 [IGF-1],Stimulation of growth of MiaPaCa-2,[13]; 48 h,increased the proliferation of the two cell lines (P<0.01 compared to untreated cells)
same,Stimulation of growth of Panc-1,[14],increased the proliferation of the two cell lines (P<0.01 compared to untreated cells)
